Measurements: patent publication US20100240093A1, “Isolated Staphylococcus Pseudolugdunensis” (priority 2006, published 2010)

Columns and labels:
isolate B277 = test: Novobiocin and polymyxin B resistance, phenotypic methods; format: cell-based, Staphylococcus pseudolugdunensis; set-up: key: “R”, resistant; “S”, susceptible; “v”, variable
Source text: (§1) Both clinical isolates and reference isolates were first identified by the conventional method based on colony size and pigment; anaerobic and aerobic growth; the presence of clumping factor, Staphaurex latex agglutination (Murex Diagnostics Inc., Norcross, Ga.), hemolysins, oxidase, ODC, urease, and PYR (De Paulis, A. N., et al (2003) J. Clin. Microbiol. 41: 1219-24, 16, 25, 33). Species identification further confirmed by using an API STAPH (bioMerieux Vitek, Inc., Hazelwood, Mo.) according to the manufacturer's instructions (Brun, Y., et al (1990) J. Clin. Microbiol. 8: 503-8; Chapin, K., and M. Musgnug (2003) J. Clin. Microbiol. 41: 4324-7; Gemmell, C. G., and J. E. Dawson (1982) J. Clin. Microbiol. 16:874-7; Heikens, E., et al (2005) J. Clin. Microbiol. 43: 2286-90; Layer, F., B. et al (2006) J. Clin. Microbiol. 44: 2824-30.). PYR and ODC were performed with S. aureus (ATCC#25923) and S. lugdunensis (ATCC#700328) included as negative and positive controls, respectively. Biochemical tests included acid production from D-glucose, D-trehalose, D-mannitol, D-mannose, xylose, maltose, lactose, sucrose, N-acetylglucosamine, raffinose, D-fructose, D-melibiose, xylitol, and α-methyl-glucosamine; nitrate reduction; and alkaline phosphatase, arginine dihydrolase, urease, and acetoin production. […] Biochemical reactions, including catalase, coagulase, D-glucose, D-mannitol, D-fructose, galactose, lactose, maltose, sucrose, D-trehalose, xylose, nitrate reduction, arginine dihydrolase, urease, and novobiocin and polymyxin B resistance, were further confirmed at the Tennessee Department of Health Laboratory Services in Nashville, Tenn., using phenotypic methods recommended by the United States Centers for Disease Control (CDC), Atlanta, Ga. (Kloose, W. E. and T. L. Bannerman (1995) Staphylococcus and Micrococcus, p. 282-298, in P. R. Murray et al. (eds.) Manual of Clinical Microbiology, 6th ed., American Society for Microbiology Press, Washington, D.C.; Kloose, W. E. and K. H. Schleifer (1975) J. Clin. Microbiol. 1: 82-88).

isolate B287 = test: as above; format: cell-based, Staphylococcus pseudolugdunensis; set-up: key: “R”, resistant; “S”, susceptible; “v”, variable
Source text: as §1

isolate B292 = test: as above; format: cell-based, Staphylococcus pseudolugdunensis; set-up: key: “R”, resistant; “S”, susceptible; “v”, variable
Source text: as §1

isolate B334 = test: as above; format: cell-based, Staphylococcus pseudolugdunensis; set-up: key: “R”, resistant; “S”, susceptible; “v”, variable
Source text: as §1

isolate B837 = test: as above; format: cell-based, Staphylococcus pseudolugdunensis; set-up: key: “R”, resistant; “S”, susceptible; “v”, variable
Source text: as §1

Unknowns (n = 12) = test: Novobiocin and polymyxin B resistance, summary of isolates; format: cell-based, Staphylococcus pseudolugdunensis; details: for Summary: resistance percentage: Unknowns (n = 12)
Source text: as §1

S. lugdunensis = tested on: S. lugdunensis; set-up: key: “R”, resistant; “S”, susceptible; “v”, variable; details: cited from earlier work
S. epidermidis = tested on: S. epidermidis; set-up: key: “R”, resistant; “S”, susceptible; “v”, variable; details: cited from earlier work
S. auricularis = tested on: S. auricularis; set-up: key: “R”, resistant; “S”, susceptible; “v”, variable; details: cited from earlier work
“S. pettenkoferi” = tested on: “S. pettenkoferi”; set-up: key: “R”, resistant; “S”, susceptible; “v”, variable; details: Trulzsch et al. (2002); cited from earlier work
isolate B006 = test: Novobiocin and polymyxin B resistance, phenotypic methods; format: cell-based, Staphylococcus pseudolugdunensis; set-up: key: “R”, resistant; “S”, susceptible; “v”, variable
Source text: as §1

isolate B060 = test: as above; format: cell-based, Staphylococcus pseudolugdunensis; set-up: key: “R”, resistant; “S”, susceptible; “v”, variable
Source text: as §1

isolate B230 = test: as above; format: cell-based, Staphylococcus pseudolugdunensis; set-up: key: “R”, resistant; “S”, susceptible; “v”, variable
Source text: as §1

isolate B354 = test: as above; format: cell-based, Staphylococcus pseudolugdunensis; set-up: key: “R”, resistant; “S”, susceptible; “v”, variable
Source text: as §1

isolate B715 = test: as above; format: cell-based, Staphylococcus pseudolugdunensis; set-up: key: “R”, resistant; “S”, susceptible; “v”, variable
Source text: as §1

isolate B739 = test: as above; format: cell-based, Staphylococcus pseudolugdunensis; set-up: key: “R”, resistant; “S”, susceptible; “v”, variable
Source text: as §1

Molecule | Resistance/Susceptibility (isolate B277) | Resistance/Susceptibility (isolate B287) | Resistance/Susceptibility (isolate B292) | Resistance/Susceptibility (isolate B334) | Resistance/Susceptibility (isolate B837) | Summary: resistance percentage (Unknowns (n = 12)) [percentage] | Resistance/Susceptibility (S. lugdunensis) | Resistance/Susceptibility (S. epidermidis) | Resistance/Susceptibility (S. auricularis) | Resistance/Susceptibility (“S. pettenkoferi”) | Resistance/Susceptibility (isolate B006) | Resistance/Susceptibility (isolate B060) | Resistance/Susceptibility (isolate B230) | Resistance/Susceptibility (isolate B354) | Resistance/Susceptibility (isolate B715) | Resistance/Susceptibility (isolate B739) | Relative resistance of S. pseudolugdunensis to polymyxin B and novobiocin (Unknowns (n = 12); Staphylococcus pseudolugdunensis bacteria)
CO[C@@H]1[C@@H](OC(N)=O)[C@@H](O)[C@H](Oc2ccc3c(O)c(NC(=O)c4ccc(O)c(CC=C(C)C)c4)c(=O)oc3c2C)OC1(C)C [Novobiocin] | R | R | R | R | R | 42 | S | S | S | S | – | – | – | – | – | – | –
Polymyxin B | – | S | S | S | R | 8 | v | R | S | – | S | S | S | S | S | S | more resistant to polymyxin B than to novobiocin
